In patent publication US9029389B2 (Institut Pasteur Korea, priority 2011, dated 2015) one finds inhibition and IC50 data, which are given here for 32 compounds.

As usually defined, the inhibition is the drop in the measured response relative to a control, in per cent. The pIC50 is the IC50 on a negative log10 scale, so that one unit is a factor of ten.

pIC50: −log10 of the molar value. A value given as a limit tells only on which side of the number the result lay.

The target in the first test is T1, Human 5-lipoxygenase (Homo sapiens, UniProt P09917).
T1 construct: purchased Cayman 60402; host or cells: insect cells
T1 sequence (P09917 1-674): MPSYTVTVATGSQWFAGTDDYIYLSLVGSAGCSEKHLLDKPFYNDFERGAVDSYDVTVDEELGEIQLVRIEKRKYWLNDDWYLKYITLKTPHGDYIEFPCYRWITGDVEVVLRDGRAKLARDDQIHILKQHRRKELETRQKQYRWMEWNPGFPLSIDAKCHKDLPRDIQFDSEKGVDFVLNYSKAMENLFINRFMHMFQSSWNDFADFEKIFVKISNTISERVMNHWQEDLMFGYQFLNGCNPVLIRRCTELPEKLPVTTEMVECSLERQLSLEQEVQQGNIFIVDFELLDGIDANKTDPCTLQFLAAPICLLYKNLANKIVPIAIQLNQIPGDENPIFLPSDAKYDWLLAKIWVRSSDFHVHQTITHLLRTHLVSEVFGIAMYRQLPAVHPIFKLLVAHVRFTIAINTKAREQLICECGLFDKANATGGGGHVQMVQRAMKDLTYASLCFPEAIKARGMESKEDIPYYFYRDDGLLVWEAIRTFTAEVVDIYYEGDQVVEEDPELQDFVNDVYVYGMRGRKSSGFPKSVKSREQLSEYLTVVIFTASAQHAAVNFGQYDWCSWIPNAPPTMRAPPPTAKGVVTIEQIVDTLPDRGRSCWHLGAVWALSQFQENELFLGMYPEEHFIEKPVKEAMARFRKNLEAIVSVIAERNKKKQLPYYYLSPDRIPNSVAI
Description: Activity of compounds against 5-LO enzyme (LTB4 measurement and/or fluorescence method). In kind it is biochemical. Particulars: 5-LO, single concentration of 10 uM in duplicate. In outline: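 Two read-outs: LTB4 measured by EIA and/or LC/MS/MS with LTB4-d4 standard after 15 min RT compound preincubation with insect-cell 5-LO and a 5 min 37 °C reaction on 3 uM arachidonic acid (0.1 mM ATP, pH 7.4). The room-temperature fluorescence format used 20 uM H2DCFDA, 100 uM ATP, 3 uM arachidonic acid, 5 min; IC50 from 6/11-point curves.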
Regarding `Cc1nc2ccccn2c1C(=O)NCC1CCN(C(=O)OC(C)(C)C)CC1` [compound 10, tert-Butyl 4-((2-methylimidazo[1,2-a]pyridine-3-carboxamido)methyl)piperidine-1-carboxylate], the inhibition at 10 µM was under 40%. Same read-out and setting: as for `Cc1nc2ccc(-c3ccccc3)cn2c1C(=O)NCc1ccccc1` [compound 39, N-Benzyl-2-methyl-6-phenylimidazo[1,2-a]pyridine-3-carboxamide], the figure is under 40%; as for `CCc1nc2cc(Cl)ccn2c1C(=O)NCc1ccc(N2CCC(c3ccc(OC(F)(F)F)cc3)CC2)cc1` [compound 268, 7-Chloro-2-ethyl-N-(4-(4-(4-(trifluoromethoxy)phenyl)piperidin-1-yl)benzyl)imidazo[1,2-a]pyridine-3-carboxamide], 40 to 69%. The same measure, in the same setting: under `CCc1nc2ccc(Cl)cn2c1CN1CCC(OCc2ccc(OC(F)(F)F)cc2)CC1` [compound 347, 6-chloro-2-ethyl-3-((4-((4-(trifluoromethoxy)benzyl)oxy)piperidin-1-yl)methyl)imidazo[1,2-a]pyridine] stands over 69%. Compound `CCOC(=O)c1c(C)nc2ccccn12` [compound 1, Ethyl 2-methylimidazo[1,2-a]pyridine-3-carboxylate] showed an inhibition at 10 µM of under 40%. Consider `CCc1nc2ccc(Cl)cn2c1C(=O)NCc1ccc(N2CCC(c3ccc(Cl)cc3)CC2)cc1` [compound 296, 6-Chloro-N-(4-(4-(4-chlorophenyl)piperidin-1-yl)benzyl)-2-ethylimidazo[1,2-a]pyridine-3-carboxamide], for which the inhibition at 10 µM is over 69%.

In turn, `CCCCCNc1ccc(CNC(=O)c2c(CC)nc3cc(Cl)ccn23)cc1` [compound 110, 7-Chloro-2-ethyl-N-(4-(pentylamino)benzyl)imidazo[1,2-a]pyridine-3-carboxamide] had an inhibition at 10 µM of over 69%.

`Cc1nc2cc(-c3ccccc3)ccn2c1C(=O)O` [compound 19, 2-Methyl-7-phenylimidazo[1,2-a]pyridine-3-carboxylic acid] showed an inhibition at 10 µM of under 40%. With `CCc1nc2ccc(F)cn2c1C(=O)NCc1ccc(N2CCOCC2)cc1` [compound 241, 2-Ethyl-6-fluoro-N-(4-morpholinobenzyl)imidazo[1,2-a]pyridine-3-carboxamide], the inhibition at 10 µM is under 40%. Same read-out and setting: under `CCc1nc2ccc(Cl)cn2c1C(=O)NCc1ccc(OCc2ccc(F)cc2)cc1` [compound 172, 6-Chloro-2-ethyl-N-(4-(4-fluorobenzyloxy)benzyl)imidazo[1,2-a]pyridine-3-carboxamide] stands under 40%. The compound `Cc1ccn2c(C(=O)NCc3ccccc3)c(C)nc2c1` [compound 32, N-Benzyl-2,7-dimethylimidazo[1,2-a]pyridine-3-carboxamide] gave an inhibition at 10 µM of under 40%. `CCc1nc2cc(Cl)ccn2c1C(=O)NCc1ccc(-c2ccc(Cl)cc2)cc1` [compound 83, 7-Chloro-N-((4′-chlorobiphenyl-4-yl)methyl)-2-ethyl-2-ethlimidazo[1,2-a]pyridine-3-carboxamide] had an inhibition at 10 µM of 40 to 69%. Still for that read-out and setting: under `CCc1nc2c(-c3ccncc3)cccn2c1C(=O)NCc1ccc(N2CCOCC2)cc1` [compound 284, 2-Ethyl-N-(4-morpholinobenzyl)-8-(pyridin-4-yl)imidazo[1,2-a]pyridine-3-carboxamide] stands under 40%.

For the compound `CCc1nc2ccc(Cl)cn2c1C(=O)N1CCC(OCc2ccc(Cl)cc2)CC1` [compound 332, (6-chloro-2-ethylimidazo[1,2-a]pyridin-3-yl)(4-((4-chlorobenzyl)oxy)piperidin-1-yl)methanone], the inhibition at 10 µM is under 40%. The same measure, in the same setting: under `CCc1nc2cc(Cl)ccn2c1C(=O)NCc1ccc(-c2ccccc2Cl)cc1` [compound 82, 7-Chloro-N-((2′-chlorobiphenyl-4-yl)methyl)-2-ethylimidazo[1,2-a]pyridine-3-carboxamide] stands 40 to 69%.

Regarding `CCc1nc2cc(Cl)ccn2c1C(=O)NCc1ccc(O)cc1` [compound 88, 7-Chloro-2-ethyl-N-(4-hydroxybenzyl)imidazo[1,2-a]pyridine-3-carboxamide], the inhibition at 10 µM is under 40%.

In turn, `Cc1nc2ccccn2c1C(=O)NCC1CCCCC1` [compound 9, N-(Cyclohexylmethyl)-2-methylimidazo[1,2-a]pyridine-3-carboxamide] yielded an inhibition at 10 µM of under 40%.

`CCc1nc2ccc(Cl)cn2c1C(=O)NCc1ccc(N2CCN(C(=O)Cc3ccc(F)cc3)CC2)cc1` [compound 320, 6-chloro-2-ethyl-N-(4-(4-(2-(4-fluorophenyl)acetyl)piperazin-1-yl)benzyl)imidazo[1,2-a]pyridine-3-carboxamide] gave an inhibition at 10 µM of under 40%. On to `CCc1nc2ccc(Cl)cn2c1C(=O)NCc1ccc(-c2ccc(Cl)cc2)cc1` [compound 73, 6-Chloro-N-((4′-chlorobiphenyl-4-yl)methyl)-2-ethylimidazo[1,2-a]pyridine-3-carboxamide], for which the inhibition at 10 µM is under 40%. Same read-out and setting: under `CCc1nc2ccc(Cl)cn2c1C(=O)NCC1CCCc2c1cnn2-c1ccc(OC(F)(F)F)cc1` (stereo not shown) [compound 147, 6-Chloro-2-ethyl-N-((1-(4-(trifluoromethoxy)phenyl)-4,5,6,7-tetrahydro-1H-indazol-4-yl)methyl)imidazo[1,2-a]pyridine-3-carboxamide] stands 40 to 69%; under `CCc1nc2ccc(Cl)cn2c1C(=O)NCc1ccc(-c2ccc(C#N)cc2C)cc1` [compound 104, 6-Chloro-N-((4′-cyano-2′-methylbiphenyl-4-yl)methyl)-2-ethylimidazo[1,2-a]pyridine-3-carboxamide], 40 to 69%.

In turn, `CCc1nc2cc(Cl)ccn2c1C(=O)NCc1ccc(-c2ccccc2C(F)(F)F)cc1` [compound 102, 7-Chloro-2-ethyl-N-((2′-(trifluoromethyl)biphenyl-4-yl)methyl)imidazo[1,2-a]pyridine-3-carboxamide] returned an inhibition at 10 µM of 40 to 69%. Still for that read-out and setting: as for `CCc1nc2ccc(Cl)cn2c1C(=O)NCc1ccc(N2CCC(C(=O)N(C)C)CC2)cc1` [compound 293, 6-Chloro-N-(4-(4-(dimethylcarbamoyl)piperidin-1-yl)benzyl)-2-ethylimidazo[1,2-a]pyridine-3-carboxamide], the figure is under 40%; as for `CCc1nc2cc(Cl)ccn2c1-c1nnc(Cc2ccc(F)cc2)o1` [compound 348, 2-(7-chloro-2-ethylimidazo[1,2-a]pyridin-3-yl)-5-(4-fluorobenzyl)-1,3,4-oxadiazole], under 40%. Regarding `CCc1nc2ccc(Cl)cn2c1C(=O)NCc1ccc(N2CCC(C(=O)O)CC2)cc1` [compound 307, 1-(4-((6-Chloro-2-ethylimidazo[1,2-a]pyridine-3-carboxamido)methyl)phenyl)piperidine-4-carboxylic acid], the inhibition at 10 µM was under 40%. The same measure, in the same setting: as for `CCc1nc2ccc(C(F)(F)F)cn2c1C(=O)NCc1ccc(N2CCC(Oc3ccc(OC(F)(F)F)cc3)CC2)cc1` [compound 124, 2-Ethyl-N-(4-(4-(4-(trifluoromethoxy)phenoxy)piperidin-1-yl)benzyl)-6-(trifluoromethyl)imidazo[1,2-a]pyridine-3-carboxamide], the figure is over 69%.

Take `Cc1nc2cccc(C)n2c1C(=O)NCc1ccccc1` [compound 34, N-Benzyl-2,5-dimethylimidazo[1,2-a]pyridine-3-carboxamide]: the inhibition at 10 µM lay in the range of 40 to 69%. Same read-out and setting: as for `CCc1nc2cc(Cl)ccn2c1C(=O)NCc1ccc(N2CCC(COC(C)C)CC2)cc1` [compound 277, 7-Chloro-2-ethyl-N-(4-(4-(isopropoxymethyl)piperidin-1-yl)benzyl)imidazo[1,2-a]pyridine-3-carboxamide], the figure is under 40%; as for `CCOC(=O)C1CCN(c2ccc(CNC(=O)c3c(CC)nc4cc(Cl)ccn34)cc2)CC1` [compound 270, Ethyl 1-(4-((7-chloro-2-ethylimidazo[1,2-a]pyridine-3-carboxamido)methyl)phenyl)piperidine-4-carboxylate], 40 to 69%; as for `CCc1nc2ccc(Cl)cn2c1C(=O)NCc1ccc(N2CCC(C(=O)c3ccc(F)cc3)CC2)cc1` [compound 323, 6-chloro-2-ethyl-N-(4-(4-(4-fluorobenzoyl)piperidin-1-yl)benzyl)imidazo[1,2-a]pyridine-3-carboxamide], under 40%.

For `CCc1nc2cc(Cl)ccn2c1C(=O)NCc1ccc(OC(F)(F)F)cc1` [compound 107, 7-Chloro-2-ethyl-N-(4-(trifluoromethoxy)benzyl)imidazo[1,2-a]pyridine-3-carboxamide], the inhibition at 10 µM was in the range of 40 to 69%.

The same test, now with this note: 6 or 11 point dose response in duplicate.
Compound `CCCCCNc1ccc(CNC(=O)c2c(CC)nc3cc(Cl)ccn23)cc1` [compound 110, 7-Chloro-2-ethyl-N-(4-(pentylamino)benzyl)imidazo[1,2-a]pyridine-3-carboxamide] had a pIC50 of under 4.70. Take `CCc1nc2ccc(C(F)(F)F)cn2c1C(=O)NCc1ccc(N2CCC(Oc3ccc(OC(F)(F)F)cc3)CC2)cc1` [compound 124, 2-Ethyl-N-(4-(4-(4-(trifluoromethoxy)phenoxy)piperidin-1-yl)benzyl)-6-(trifluoromethyl)imidazo[1,2-a]pyridine-3-carboxamide]: the pIC50 is 4.70 to 6.00. `CCc1nc2cnccn2c1CNc1ccc(N2CCN(c3ccc(F)cc3)CC2)cc1` [compound 398, N-((2-Ethylimidazo[1,2-a]pyrazin-3-yl)methyl)-4-(4-(4-fluorophenyl)piperazin-1-yl)aniline] showed a negative logarithm of the IC50 (pIC50) of over 6.00.
